The values that follow come from patent US8809535B2, “Substituted pyridines having herbicidal action” (BASF SE, priority 2010, dated 2014).

Experiment in all cases: greenhouse post-emergence herbicidal test
The test system of assay [1] is ECHCG. In kind it is in vivo, Echinochloa crus-galli. Conditions: application rate 0.177 kg/ha, scale 0 to 100. From the text:
(§1) The culture containers used were plastic flowerpots containing loamy sand with approximately 3.0% of humus as the substrate. The seeds of the test plants were sown separately for each species.
(§2) For the post-emergence treatment, the test plants were first grown to a height of 3 to 15 cm, depending on the plant habit, and only then treated with the active ingredients which had been suspended or emulsified in water. For this purpose, the test plants were either sown directly and grown in the same containers, or they were first grown separately as seedlings and transplanted into the test containers a few days prior to treatment.
(§3) Depending on the species, the plants were kept at 10-25° C. or 20-35° C. The test period extended over 2 to 4 weeks. During this time, the plants were tended, and their response to the individual treatments was evaluated.
(§4) Evaluation was carried out using a scale from 0 to 100. 100 means no emergence of the plants, or complete destruction of at least the aerial moieties, and 0 means no damage, or normal course of growth. A good herbicidal activity is given at values of at least 70 and a very good herbicidal activity is given at values of at least 85.
(§5) The plants used in the greenhouse experiments belonged to the following species: […]

For assay [2], the system named is SETVI. The assay is classed as in vivo, Setaria viridis. The settings on record: application rate 0.25 kg/ha, scale 0 to 100.
From the text: as §1, §2, §3, §4, §5

For assay [3], the system named is GALAP. In kind it is in vivo, Galium aparine. The settings on record: application rate 0.25 kg/ha, scale 0 to 100.
From the text: as §1, §2, §3, §4, §5

Turning to `O=c1oc2cccnc2c(O)c1-c1cccc(N2CCOCC2)c1C(F)(F)F` [Compound I-26], the “herbicidal activity against ECHCG” value in assay [1] is “very good herbicidal activity (a very good herbicidal activity is given at values of at least 85)”. Consider `O=c1oc2cccnc2c(O)c1-c1cc(Cl)cc(N2CCOCC2)c1C(F)(F)F` [Compound I-49, 3-[5-chloro-3-morpholino-2-(trifluoromethyl)phenyl]-4-hydroxy-pyrano[3,2-b]pyridin-2-one], for which the “herbicidal activity against SETVI” value in assay [2] is “very good herbicidal activity (a very good herbicidal activity is given at values of at least 85)”. Further, the “herbicidal activity against GALAP” value in assay [3] is recorded as “very good herbicidal activity (a very good herbicidal activity is given at values of at least 85)”.
